The text below walks through data of patent US20080214845A1, “ANTIBACTERIAL 6'-MODIFIED 4,5-SUBSTITUTED AMINOGLYCOSIDE ANALOGS” (priority 2005, published 2008).

The structures appear in SMILES notation.

The subject of assay [1] is Staphylococcus aureus (Smith strain ATCC 13709). The assay is described as follows: Staphylococcus aureus mouse protection assay. It is filed as in vivo. The following applies: Staph conc. 10^6 IP in 10% mucin, treatments at 1 hour and 3 hour post infection. The protocol:
Two of the novel aminoglycoside compounds of the invention were examined for their anitbacterial activity against staphylococcus aureus. The mice were infected IP with 0.5 ml […] staphylococcus aureus in 10% mucin. There were 10 mice in each treated group with treatments at 1 hour and 3 hour post infection. The Ibis compounds (IBIS00561085 R4═R5═CH3 and IBIS00561141 R4═H, R5═(CH2)2C6H5) were used at 75 mg/kg, 37.5 mg/kg, 18.8 mg/kg, 9.4 mg/kg, 4.7 mg/kg, 2.3 mg/kg, 1.17 mg/kg and 0.5 mg/kg. Amakacin, Paromomycin and Neomycin were used as the positive controls at concentration of 2 mg/kg, 1 mg/kg and 0.5 mg/kg.

For the next assay, the target named is 18S. The assay can be described thus: 18S Kd by FTICR mass spectrometry. It is filed as binding. The protocol: (§1) Was performed according to the published report; […]-Lowery, […].; Mohan, […]. et al. Characterization of Low Affinity Complexes Between RNA and Small Molecules Using Electrospray Ionization Mass Spectrometry. J. Am. Chem. […] Screening is performed by measuring the formation of non-covalent complexes between a single ligand or ligand mixture and the appropriate RNA target, along with suitable control structured RNA target(s) simultaneously using a 9.4 T FT-ICR mass spectrometer as detector. Full experimental details of the assay have been described in related literature ([…]-Lowery, et al. in TrAC, Trends Anal. […] The abundances were integrated from the respective ions for free RNA and the ligand-RNA complex. […] The peak ratios are measured at each concentration, then a plot of complex/free RNA versus concentration of ligand added is fitted to a second (or higher) order binding polynomial to determine the KD.

The next assay addresses 16S. The assay can be described thus: Measurement of 16S Kd by FTICR mass spectrometry. It is filed as binding. The protocol: as §1
Assay [2] deals with E. coli S30 bacterial extract (pBest Luc luciferase transcription/translation). The assay can be described thus: Coupled bacterial transcription/translation assay (T/T). It is filed as biochemical. The following applies: luciferase reporter, 35 minutes at 37° C., read-out: Trans/Trans IC50. The protocol:
The DNA template, pBest Luc™ (Promega), is a plasmid containing a reporter gene for firefly luciferase fused to a strong tac promoter and ribosome binding site. Messenger RNA from 1 μg pBestLuc was transcribed and translated in E. coli S30 bacterial extract in the presence or absence of test compound. Compounds were tested in a black 96 well microtiter plate with an assay volume of […]. Each test well contained: 5 μL test compound, 13 μL S30 premix (Promega), 4 μL 10× complete amino acid mix (1 mM each), 5 μL E. coli S30 extract and 8 μL of 0.125 μg/μL pBest Luc™. The transcription/translation reaction was incubated for 35 minutes at 37° C. followed by detection of functional luciferase with the addition of 30 μL LucLite™ (Packard). Light output was quantitated on a Packard TopCount.
(In general: In a reporter assay the amount or activity of a reporter protein is the signal.)

Another assay deals with E. Coli. The assay is described as follows: Minimum inhibitory concentration (MIC), E. coli. It is filed as cell-based. Particulars: range of concentration; 20-24 hours at 37° C., A595. The protocol: (§2) The assays are carried out in 150 μL volume in duplicate in 96-well clear flat-bottom plates. The bacterial suspension from an overnight culture growth in appropriate medium is added to a solution of test compound in 2.5% DMSO in water. Final bacterial inoculum is approximately 10^2-10^3 CFU/well. The percentage growth of the bacteria in test wells relative to that observed for a control wells containing no compound is determined by measuring absorbance at 595 nm (A595) after 20-24 hours at 37° C. The MIC is determined as a range of concentration where complete inhibition of growth is observed at the higher concentration and bacterial cells are viable at the lower concentration. Both ampicillin and tetracycline are used as antibiotic positive controls in each screening assay.

The next assay relates to S. Aureus. The assay is described as follows: Minimum inhibitory concentration (MIC), S. aureus. It is filed as cell-based. Particulars: range of concentration; 20-24 hours at 37° C., A595. The method, then:
as §2

One may read the Kd as the free concentration of one partner at which half of the binding sites on the other are occupied at equilibrium, for simple one-to-one binding. Consider `NCC1OC(OC2C(CO)OC(OC3C(O)C(N)CC(N)C3OC3OC(CNCCc4ccccc4)C(O)C(O)C3N)C2O)C(N)C(O)C1O` (centres unmarked) [IBIS00561141], for which the “# Dead mice/Total mice in group” value is listed as 7/10 (10% Mucin) in assay [1] (0.5 mg/kg); 0/10 (10% Mucin) in assay [1] (1 mg/kg); 0/10 (10% Mucin) in assay [1] (2 mg/kg); 0/10 (10% Mucin) in assay [1] (4.5 mg/kg); 0/10 (10% Mucin) in assay [1] (9 mg/kg); 0/10 (10% Mucin) in assay [1] (18 mg/kg). Moreover, the “# Dead mice/Total mice in group” value in assay [1] (37 mg/kg) and in assay [1] (75 mg/kg) was 0/10 (10% Mucin) in each case. Moreover, the Kd was determined as 2160 nM on 18S and 496 nM on 16S. Also, the IC50 in assay [2] was 200 nM. Also, the “MIC E. Coli.” value against E. Coli. fell in the range of 1.25 to 2.5 µM. Moreover, the “MIC S. Aureus” value in the assay with S. Aureus was 0.3125 to 0.625 µM.

Regarding `CNC[C@H]1O[C@H](O[C@H]2[C@H](O[C@@H]3O[C@H](CO)[C@@H](O[C@H]4O[C@@H](CN)[C@@H](O)[C@H](O)[C@H]4N)[C@H]3O)[C@@H](O)[C@H](N)C[C@@H]2N)[C@H](N)[C@@H](O)[C@@H]1O` [IBIS00560186], the Kd at 18S turned out to be 1160 nM; on 16S it was 362 nM. The IC50 in assay [2] was determined as 159 nM. In addition, the “MIC E. Coli.” value against E. Coli. was in the range of 2 to 3 µM. Also, the “MIC S. Aureus” value against S. Aureus fell in the range of 2 to 3 µM.

`CC(C)(C)OC(=O)NNC[C@H]1O[C@H](O[C@H]2[C@H](O[C@@H]3O[C@H](CO)[C@@H](O[C@H]4O[C@@H](CN)[C@@H](O)[C@H](O)[C@H]4N)[C@H]3O)[C@@H](O)[C@H](N)C[C@@H]2N)[C@H](N)[C@@H](O)[C@@H]1O` [IBIS00561082]: the dissociation constant (Kd) is 1350 nM on 18S and 14.9 nM at 16S. Besides, in assay [2], the IC50 is 308 nM. Besides, the “MIC E. Coli.” value in the assay on E. Coli. lay in the range of 6 to 12 µM. The “MIC S. Aureus” value in the assay on S. Aureus lay within 12 to 25 µM.
